Data published in patent US11142546B2, “Neuropeptide S receptor (NPSR) agonists” (Research Triangle Institute, priority 2016, dated 2021).

These compounds were tested against T1, human NPS receptor variants (NPS Ile107 and Asn107) (Homo sapiens, UniProt Q6W5P4) (assay: Functional determination of EC50 by calcium mobilization in RD-HGA16 CHO cells overexpressing the NPS receptor). Details: FlexStation, mean of at least three independent experiments, receptor variant not given.
T1 sequence (Q6W5P4 1-371 N107I): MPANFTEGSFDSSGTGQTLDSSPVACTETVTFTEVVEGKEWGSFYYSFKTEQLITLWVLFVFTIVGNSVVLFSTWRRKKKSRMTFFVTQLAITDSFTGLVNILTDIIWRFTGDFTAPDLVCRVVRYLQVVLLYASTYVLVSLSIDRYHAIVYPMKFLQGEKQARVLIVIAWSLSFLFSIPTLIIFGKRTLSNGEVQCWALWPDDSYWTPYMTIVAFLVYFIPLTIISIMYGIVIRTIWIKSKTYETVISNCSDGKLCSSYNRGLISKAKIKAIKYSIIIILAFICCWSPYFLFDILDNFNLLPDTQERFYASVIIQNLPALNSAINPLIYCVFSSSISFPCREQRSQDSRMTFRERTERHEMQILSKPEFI
Format: cell-based
Text: Functional Determinations of EC50: Identification of functional agonists at the NPS receptor was done utilizing RD-HGA16 cells (Molecular Devices), a Chinese Hamster Ovary cell line stably expressing the promiscuous Gq-protein Gα16. RD-HGA16 cells were engineered to stably overexpress the NPS receptor. Two individual cell lines were created that stably express one of two human NPS receptor variants (NPS Ile107 and Asn107). Cells were loaded with a calcium sensitive dye (Molecular Devices) for 1 h at 370 C and compounds were assayed in separate experiments for intrinsic activity as measured by increased fluorescence intensity as a marker of mobilization of internal calcium stores using a FlexStation fluorescence plate reader. Compounds were run as 8-point full log or half log concentration curves in duplicate in order to determine the EC50 of the test compound. Each compound was tested in at least three independent experiments. A three-parameter logistic equation was fit to the concentration response data with Prism Software (v5 for Windows, GraphPad Software; San Diego, Calif.) to calculate the EC50 values. The data represent the mean±SEM from at least three independent experiments. Table 1 lists the EC50 for certain compounds of Formula I or Formula II.
NC(=O)[C@H]1CCCC[C@@H]1NC(=O)CNC(=O)C(Cc1ccccc1)Cc1ccccc1 (racemic) [Compound R06039-656, (1R/S,2S/R)-2-(2-(2-benzyl-3-phenylpropanamido)acetamido)cyclohexanecarboxamide] was tested, and the EC50 was 1.02 µM.
Compound NC(=O)[C@@H]1CCCC[C@H]1NC(=O)CNC(=O)/C(=C/c1ccccc1)CCc1ccccc1 (relative stereo) [Compound R06039-675, Trans-2-(2-((E)-2-Benzylidene-4-phenylbutanamido)acetamido)cyclohexanecarboxamide] has an EC50 of 0.213 µM.
Compound NC(=O)[C@H]1CCCC[C@@H]1OC(=O)CNC(=O)[C@H](Cc1ccccc1)NC(=O)c1ccccc1 [Compound R06039-636, (1S,2S)-2-carbamoylcyclohexyl-2-[(2S)-3-phenyl-2-(phenylformamido)propanamido]acetate] has an EC50 of 0.094 µM.
NC(=O)[C@@H]1CCCC[C@H]1NC(=O)CNC(=O)[C@H](Cc1ccccc1)OCc1ccccc1 [Compound R06039-641, Trans-2-(2-((S)-2-(benzyloxy)-3-phenylpropanamido)acetamido)cyclohexanecarboxamide] showed an EC50 of 0.169 µM.
For NC(=O)[C@H]1CCCC[C@@H]1NC(=O)CNC(=O)C(Cc1ccccc1)c1ccccc1 (some centres unmarked) [Compound R06039-657, (1R/S,2S/R)-2-(2-(2,3-diphenylpropanamido)acetamido)cyclohexanecarboxamide], the EC50 was 0.901 µM.
In the case of NCCCC[C@H](NC(=O)C(CCc1ccccc1)Cc1ccccc1)C(=O)NC1CCCCC1C(N)=O (stereo partly drawn) [Compound R06039-693, 2-[(2S)-6-amino-2-(2-benzyl-4-phenylbutanamido)hexanamido]cyclohexane-1-carboxamide], the EC50 is reported as 0.077 µM.
NCCCC[C@H](NC(=O)C(CCc1ccccc1)Cc1ccccc1)C(=O)NC1C2CCC(CC2)C1C(N)=O (stereo partly drawn) [Compound R06039-696, 3-[(2S)-6-amino-2-(2-benzyl-4-phenylbutanamido)hexanamido]bicyclo[2.2.2]octane-2-carboxamide] showed an EC50 of 0.091 µM.
NC(=O)[C@@H]1CCCC[C@H]1NC(=O)CNC(=O)C(CCC1CCCCC1)Cc1ccccc1 (relative stereo) [Compound R06039-682, Trans-2-(2-(2-Benzyl-4-cyclohexylbutanamido)acetamido)cyclohexanecarboxamide] gave an EC50 of 0.894 µM.
In the case of NC(=O)[C@H]1CCCC[C@@H]1NC(=O)CNC(=O)/C=C/c1ccccc1 (racemic) [Compound R06039-655, (1R/S,2S/R)-2-(2-cinnamamidoacetamido)cyclohexanecarboxamide], the EC50 is reported as 2.11 µM.
Compound NC(=O)C1C2CCC(CC2)C1NC(=O)CNC(=O)C(CCc1ccccc1)Cc1ccccc1 (centres unmarked) [Compound R06039-691, 3-[2-(2-Benzyl-4-phenylbutanamido)acetamido]bicyclo[2.2.2]octane-2-carboxamide] has an EC50 of 0.093 µM.

Each compound was assayed against T2, NPSR-C-Alt (Homo sapiens, UniProt Q6W5P4) (assay: Functional assay of NPS receptor isoforms). Details: least potent at NPSR-C-Alt.
T2 sequence (Q6W5P4 1-377 isoform Q6W5P4-4): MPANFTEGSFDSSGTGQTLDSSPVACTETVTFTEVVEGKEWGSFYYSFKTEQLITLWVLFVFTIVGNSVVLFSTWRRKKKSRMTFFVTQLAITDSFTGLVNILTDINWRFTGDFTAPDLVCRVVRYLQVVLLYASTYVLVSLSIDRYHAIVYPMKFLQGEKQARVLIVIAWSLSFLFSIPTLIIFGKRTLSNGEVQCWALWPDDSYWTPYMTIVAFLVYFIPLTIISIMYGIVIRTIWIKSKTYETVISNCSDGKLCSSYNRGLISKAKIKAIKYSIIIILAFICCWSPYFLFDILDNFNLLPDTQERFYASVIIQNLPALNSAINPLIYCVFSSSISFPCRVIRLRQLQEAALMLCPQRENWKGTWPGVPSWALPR
Format: cell-based
Protocol: The neuropeptide S receptor has at least three known isoforms including the wild type NPS Asn^107, the NPS Asn107Ile and NPS C-Alt. Since each variant could potentially have functional difference, the agonist sensitivity of each isoform was evaluated.
“hNPS: Human neuropeptide S, 20 residue peptide with the primary sequence SFRNGVGTGMKKTSFQRAKS (SEQ ID NO: 1) (Human)” was tested, and the “potency at NPSR-C-Alt, fold lower versus the 107I variant” value was 30 fold.
